From patent US20260364101A1, “OLEUROPEIN IN THE MANAGEMENT OF CANCER” (FUNDACIÓN MIGUEL SERVET, priority 2023, published 2026)
Entries after “also recorded” stand apart in the source; their conditions may differ.

How the values were obtained:
MC38 cells = assay: MC38 colorectal cancer mouse tumor model, with rechallenge; assay type: in vivo, C57BL/6 mice; conditions: MC38 s.c.
Method: C57BL/6 female mice were subcutaneously (s.c) injected with […] LLC cells or 0.5×10^6 MC38 cells per animal. When tumor growth reached an average diameter of 3.5 mm (day 0), mice received 100 μg of anti-PD-1 mAb (RPMI-14, BioXCell) intraperitoneally (i.p) at days 0, 5, and 13. Control mice received the same volume of saline. For oleuropein, mice received 300 μg oleuropein at days-1, 2, 4, 6, and 8. As negative control, the same volume of saline was injected.
The efficacy of all treatments was evaluated every two days by measuring two perpendicular tumor measurements. The size was calculated using the formula: Size=Length x Width. Mice were humanely sacrificed when tumor size reached ~150 mm^2, or when tumor ulceration or evident discomfort were observed. For rechallenge experiments in the MC38 model, mice that rejected tumors were injected s.c. with 5×10^5 MC38 cells in the left flank three months after the first tumor inoculation. Naïve mice were included as controls and development of tumors was evaluated for two months.
Tumor measurements of in vivo experiments are represented as tumor diameter (mm^2) and plotted either as individual data points for one individual mouse or as mean±SD as indicated in the figure legends. Statistical analysis was performed using one way ANOVA test followed by a Sidak's multiple comparison test at 0.05 level of significance. For in vivo experiments, to compare multiple experimental groups, one-way ANOVA test and Tukey's multiple comparison test were used. Two-tailed Student's t test was applied to compare two experimental groups. Survival of tumor-bearing mice is represented by Kaplan-Meier plots and analyzed by log-rank test. The p values <0.05 were considered statistically significant.
The efficacy of oleuropein and oleuropein/PD-1 blockade combinations were also tested in a colorectal cancer model. To this end, MC38 cells were subcutaneously implanted in mice and allowed to grow until tumors reached a diameter of about […]. Then, oleuropein was administered intraperitoneally one day prior to anti-PD1 mAb injection. […]

TAMs = assay: ex vivo differentiated TAMs treated with compound, marker expression by flow cytometry (FIG. 1b); assay type: cell-based, mouse; conditions: oleuropein 50 μM
Method: Immunosuppressive myeloid cell subsets resembling tumor-infiltrating subsets (g-MDSCs, m-MDSCs and TAMs) were differentiated from mouse bone marrow following published procedures using conditioning medium produced by LLC tumor cells stably expressing GMCSF and MCSF cells. g- and m-MDSCs were purified using the myeloid-derived suppressor cell isolation kit (Miltenyi Biotec, Bergisch, Germany) according to manufacturer's recommendations. MDSCs and TAMs were seeded with 500 nM BML-275 or 50 μM oleuropein and incubated for seven days.
Surface and intracellular staining were carried out as described before with the following fluorochrome-conjugated antibody clones: AF488 anti-CD49d (R1-2), PE anti-CD4 (GK1.5), APCanti-CD8(53-6.7), brilliant Violet 510™ anti-I-A/I-E (M5/114.15.2,PE/Cyanine7anti-Ly-6G (1A8), and APC anti-CD80 (16-10A1) (Biolegend), FITC anti-IL-12 (C15.6) and BV421 anti-IL-2 (JES6-5H4) (BD Bioscience), APC-Vio® 770 anti-Ly-6C (REA796), PE REAfinity™ anti-F4/80 (REA126), and APC anti-CD68 (REA886) (Miltenyi), PerCP-Cyanine5.5 Anti-Human/Mouse CD11b (M1/70) (Tonbo), and AF488 anti-IFNγ (Clone XMG1.2) (BD Pharmigen). For human cells, it was used the following fluorochrome-conjugated antibodies: PerCP-Cy5.5-anti-CD11b (integrina alfa M) (M1/70), Violet Fluor 450 anti-CD14 antibody (61D3) (Tonbo), PE anti-CD115 (CSF-1R) (9-4D2-1E4) (Biolegend), PE-Cy™7 anti-CD11c (Clone B-ly6) (BD Bioscience), and APC anti-HLA-DR (REA517) (Miltenyi).
Data were collected using the FACSCanto Flow Cytometer (BD Biosciences) for ex vivo and in vitro experiments at Navarrabiomed Biomedical Research Center and Cyroflex LX flow cytometer (Beckman Counter). Data were analyzed with Flowjo.

For `C/C=C1/[C@H](O[C@@H]2O[C@H](CO)[C@@H](O)[C@H](O)[C@H]2O)OC=C(C(=O)OC)[C@H]1CC(=O)OCCc1ccc(O)c(O)c1` [oleuropein], the cure rate (MC38 cells; oleuropein 300 μg i.p.) was 16%, the survival (MC38 cells; oleuropein 300 μg i.p. and/or anti-PD-1 mAb 100 μg i.p.) was “significant increase in survival” and the tumor growth (MC38 cells; oleuropein 300 μg i.p. or anti-PD-1 mAb 100 μg i.p.) was “significantly delayed the growth of MC38 tumors”. For the same molecule, the “cells co-expressing MHC-II and CD80” value (TAMs; BML-275 500 nM, TAMs) was “significant elevation”, the “polarization of TAMs” value (TAMs) was “polarized MDSCs and TAMs into activated myeloid cells; also recorded: polarized TAMs to activated macrophages” and the IL-12 production (TAMs; TAMs) was “upregulated IL-12 production only in the presence of oleuropein”.
